Among the test systems are A498 renal; HCT-15 colon; KM12 colon; MOLT-4 leukemia; OVCAR-4 ovarian; OVCAR-8 ovarian; SF-295 CNS; SN12C renal; SR leukemia; UACC-257 melanoma.
What all share (test): DTP human tumour cell line panel, 48 h

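Where inhibition never reached the appropriate level, the endpoint shown equals the highest concentration tested. Otherwise, values were interpolated linearly from a five-concentration, 48-hour dose response in 96-well plates. Here, GI50 denotes the concentration required for 50% inhibition of growth. TGI denotes the concentration required for complete inhibition of growth.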

`COc1ccc(C2C3=C(COC3=O)N(CCO)c3cc4c(cc32)CCC4)cc1OC` (stereo not given): the concentration for 50% growth inhibition (GI50) in the test with A498 renal was 242 nM; in the test on HCT-15 colon it was 1650 nM; with KM12 colon, 297 nM; in the test with MOLT-4 leukemia, 2100 nM; in the test with OVCAR-4 ovarian it was 901 nM; with OVCAR-8 ovarian, 1740 nM. Further, the GI50 was 171 nM with SF-295 CNS, 3410 nM with SN12C renal, 253 nM in the test with SR leukemia and greater than 50000 nM in the test on UACC-257 melanoma. The total growth inhibition concentration (TGI) in the test on A498 renal was greater than 20000 nM; in the test with HCT-15 colon, greater than 50000 nM; in the test on KM12 colon, greater than 50000 nM; in the test with MOLT-4 leukemia, greater than 50000 nM; in the test on OVCAR-4 ovarian, greater than 50000 nM; with OVCAR-8 ovarian, greater than 50000 nM. Further, the TGI in the test on SF-295 CNS was 1310 nM; with SN12C renal, greater than 50000 nM; in the test on SR leukemia it was greater than 50000 nM; in the test on UACC-257 melanoma, greater than 50000 nM.

Source of the values: PubChem BioAssay (NCI).
